# Columns and labels:
# Cdk2(S181C) (C177A) = biological target: T1, Cdk2(S181C) (C177A) (Homo sapiens, UniProt P24941, C177A/S181C); assay: Kinetic thiol consumption assay with Cdk2 mutant S181C; type: binding; parameters: key to Rate enhancement, Cdk2 S181C: rate constant with Cdk2 ÷ rate constant with model thiol (fold); conditions: additional mutation C177A; for Rate constant with Cdk2 S181C: Protein: Cdk2, cysteine position S181C, in h^-1
# T1 construct: poly-histidine; made in house; host or cells: E. coli
# In short: (§1)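 Read-out is fluorescence at 380/470 nm, taken after 1 h at room temperature and normalized to a DMSO/thiol-only control over time. Thiol (5 μM Cdk2 mutant or model thiol) was in degassed pH 8 phosphate buffer with 2% v/v TCEP beads. Acrylamide rate constants for Cdk2 were divided by those with model thiol.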
# [1] = biological target: T2, human cyclin-dependent kinase 2 (Cdk2) (Homo sapiens, UniProt P24941); assay: Kinetic thiol consumption assay with wild type Cdk2 (C177); type: binding; parameters: key to Rate enhancement, Cdk2 WT: k(Cdk2) divided by k(model thiol); Rate constant with Cdk2 (k(Cdk2)): unit not given here; conditions: for Rate constant with Cdk2 (k(Cdk2)): 500 μM ligand, 5 μM thiol, phosphate buffer pH 8; for Rate enhancement, Cdk2 WT: no additional mutations; for Rate constant with Cdk2 WT: Protein: Cdk2, cysteine position WT, in h^-1; for k(Cdk2)/k(Cdk2_mut) rate enhancement: model thiol Cdk2[C177A, F80C, K278C]; for k(Cdk2)/k(GSH) rate enhancement: model thiol glutathione
# T2 construct: poly-histidine; made in house; host or cells: E. coli
# In short: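 His-tagged human Cdk2 (single surface cysteine C177), expressed in E. coli, or a model thiol at 5 μM in degassed phosphate buffer pH 8 was pre-treated with immobilized TCEP beads (2% v/v) before acrylamide addition. Fluorescence (ex/em 380/470 nm) was read after 1 h at room temperature, normalized to DMSO/thiol-only control and plotted versus time.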
# Cdk2(T182C) (C177A) = biological target: T3, Cdk2(T182C) (C177A) (Homo sapiens, UniProt P24941, C177A/T182C); assay: Kinetic thiol consumption assay with Cdk2 mutant T182C; type: binding; parameters: key to Rate enhancement, Cdk2 T182C: rate constant with Cdk2 ÷ rate constant with model thiol (fold); conditions: additional mutation C177A; for Rate constant with Cdk2 T182C: Protein: Cdk2, cysteine position T182C, in h^-1
# T3 construct: poly-histidine; made in house; host or cells: E. coli
# In short: as §1
# [2] = Kinetic thiol consumption assay with model thiol glutathione; type: physicochemical; parameters: Rate constant with glutathione (k(GSH)): unit not given here; conditions: for Rate constant with glutathione (k(GSH)): 500 μM ligand, 5 μM thiol, phosphate buffer pH 8; for Rate constant with Glutathione: Protein: Glutathione, cysteine position NA, in h-1
# In short: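 First, 5 μM glutathione in degassed phosphate buffer (pH 8) receives immobilized TCEP beads (2% v/v). Then acrylamide is added and plates incubate 1 h at room temperature. Finally, fluorescence (380/470 nm) is normalized and fitted to first-order decay for rate constants.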
# Cdk2(N272C) (C177A) = biological target: T4, Cdk2(N272C) (C177A) (Homo sapiens, UniProt P24941, C177A/N272C); assay: Kinetic thiol consumption assay with Cdk2 mutant N272C; type: binding; parameters: key to Rate enhancement, Cdk2 N272: rate constant with Cdk2 ÷ rate constant with model thiol (fold); conditions: for Rate enhancement, Cdk2 N272: Cdk2 N272, additional mutation C177A; for Rate constant with Cdk2 N272C: Protein: Cdk2, cysteine position N272C, additional mutation C177A, in h^-1
# T4 construct: poly-histidine; made in house; host or cells: E. coli
# In short: as §1
# Cdk2(R122C) (C177A) = biological target: T5, Cdk2(R122C) (C177A) (Homo sapiens, UniProt P24941, C177A/R122C); assay: Kinetic thiol consumption assay with Cdk2 mutant R122C; type: binding; parameters: key to Rate enhancement, Cdk2 R122C: rate constant with Cdk2 ÷ rate constant with model thiol (fold); conditions: additional mutation C177A; for Rate constant with Cdk2 R122C: Protein: Cdk2, cysteine position R122C, in h-1
# T5 construct: poly-histidine; made in house; host or cells: E. coli
# In short: as §1
# Cdk2(H71C) (C177A) = biological target: T6, Cdk2(H71C) (C177A) (Homo sapiens, UniProt P24941, C177A/H71C); assay: Kinetic thiol consumption assay with Cdk2 mutant H71C; type: binding; parameters: key to Rate enhancement, Cdk2 H71C: rate constant with Cdk2 ÷ rate constant with model thiol (fold); conditions: additional mutation C177A; for Rate constant with Cdk2 H71C: Protein: Cdk2, cysteine position H71C, in h^-1
# T6 construct: poly-histidine; made in house; host or cells: E. coli
# In short: as §1
# Cdk2[C177A, F80C, K278C] = biological target: T7, Cdk2[C177A, F80C, K278C] (Homo sapiens, UniProt P24941, C177A/F80C/K278C); assay: Kinetic thiol consumption assay with mutant Cdk2 as model thiol; type: binding; parameters: unit not given here; conditions: 500 μM ligand, 5 μM thiol, phosphate buffer pH 8
# T7 construct: poly-histidine; made in house; host or cells: E. coli
# In short: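 First-order rate constants were derived by exponential-decay fitting of DMSO/thiol-normalized fluorescence (380/470 nm) over time at room temperature. Thiol was 5 μM E. coli-expressed His-tagged Cdk2 mutant C177A/F80C/K278C in degassed pH 8 phosphate buffer containing 2% v/v TCEP beads.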
# Cdk2(C177A, F80C) = biological target: T8, Cdk2(C177A, F80C) (Homo sapiens, UniProt P24941, C177A/F80C); assay: Kinetic thiol consumption assay with Cdk2 mutant F80C, incl. kobs versus concentration (Kd, k2); type: binding; parameters: key to Rate enhancement, Cdk2 F80C: Cdk2 rate constant divided by model-thiol rate constant; conditions: for Rate enhancement, Cdk2 F80C / Rate constant with Cdk2 F80C: additional mutation C177A; for Rate constant with Cdk2 F80C: Protein: Cdk2, cysteine position F80C, in h^-1
# T8 construct: poly-histidine; made in house; host or cells: E. coli
# In short: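 His-tagged Cdk2(C177A/F80C) from E. coli or model thiol, 5 μM in degassed phosphate buffer pH 8 with TCEP beads, reacted with acrylamide ligands; fluorescence (ex/em 380/470 nm) normalized to DMSO control and fitted to first-order decay for kobs. Kd and k2 obtained from hyperbolic fit of kobs versus ligand concentration.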
# Cdk2(S276C) (C177A) = biological target: T9, Cdk2(S276C) (C177A) (Homo sapiens, UniProt P24941, C177A/S276C); assay: Kinetic thiol consumption assay with Cdk2 mutant S276C; type: binding; parameters: key to Rate enhancement, Cdk2 S276C: rate constant with Cdk2 ÷ rate constant with model thiol (fold); conditions: additional mutation C177A; for Rate constant with Cdk2 S276C: Protein: Cdk2, cysteine position S276C, in h^-1
# T9 construct: poly-histidine; made in house; host or cells: E. coli
# In short: as §1
# [3] = hyperbolic fit of kobs against ligand concentration
Compound,"Rate enhancement, Cdk2 S181C (Cdk2(S181C) (C177A))",Rate constant with Cdk2 S181C (Cdk2(S181C) (C177A)),Rate constant with Cdk2 (k(Cdk2)) [1],"Rate enhancement, Cdk2 WT [1]",Rate constant with Cdk2 WT [1],k(Cdk2)/k(Cdk2_mut) rate enhancement [1],k(Cdk2)/k(GSH) rate enhancement [1],"Rate enhancement, Cdk2 T182C (Cdk2(T182C) (C177A))",Rate constant with Cdk2 T182C (Cdk2(T182C) (C177A)),"Rate enhancement, Cdk2 N272 (Cdk2(N272C) (C177A))",Rate constant with Cdk2 N272C (Cdk2(N272C) (C177A)),"Rate enhancement, Cdk2 R122C (Cdk2(R122C) (C177A))",Rate constant with Cdk2 R122C (Cdk2(R122C) (C177A)),"Rate enhancement, Cdk2 H71C (Cdk2(H71C) (C177A))","Rate constant with Cdk2[C177A, F80C, K278C] (k(Cdk2_mut)) (Cdk2[C177A, F80C, K278C])","Rate enhancement, Cdk2 F80C (Cdk2(C177A, F80C))","Rate enhancement, Cdk2 S276C (Cdk2(S276C) (C177A))",Rate constant with Cdk2 S276C (Cdk2(S276C) (C177A)),Rate constant with glutathione (k(GSH)) [2],Rate constant with Glutathione [2],further results
C=CC(=O)N1CC(n2cccn2)C1 [CA-173],1.349,0.02111,0.00754,0.4816,0.007537,1.495,0.4779,2.778,0.04347,0.6511,0.01019,0.3379,0.005288,0.1755,0.00504,0.3401,1.187,0.01857,0.01577,0.01565,"Rate constant with Cdk2 H71C (Cdk2(H71C) (C177A)): 0.002746; Rate constant with Cdk2 F80C (Cdk2(C177A, F80C)): 0.005323"
C=CC(=O)N1CC2CC2C1 (centres unmarked) [CA-211],2.498,0.02341,0.00368,0.3928,0.003681,2.144,0.6839,2.18,0.02043,2.443,0.02289,0.3837,0.003595,0,0.00172,0.2496,0.4691,0.004395,0.00538,0.00937,"Rate constant with Cdk2 F80C (Cdk2(C177A, F80C)): 0.002339"
C=CC(=O)NCC1CN(C2CC2)CCO1 (centres unmarked) [CA-038],0.4715,0.005333,0.00332,0.5218,0.005901,0.9623,0.5101,1.744,0.01973,0.592,0.006696,0.3691,0.004175,0.8254,0.00345,0,0.5828,0.006591,0.0065,0.01131,Rate constant with Cdk2 H71C (Cdk2(H71C) (C177A)): 0.009335

# Second part, led by results:
"Rate enhancement, Cdk2 S181C (Cdk2(S181C) (C177A))",Rate constant with Cdk2 S181C (Cdk2(S181C) (C177A)),Rate constant with Cdk2 (k(Cdk2)) [1],"Rate enhancement, Cdk2 WT [1]",Rate constant with Cdk2 WT [1],k(Cdk2)/k(Cdk2_mut) rate enhancement [1],k(Cdk2)/k(GSH) rate enhancement [1],"Rate enhancement, Cdk2 T182C (Cdk2(T182C) (C177A))",Rate constant with Cdk2 T182C (Cdk2(T182C) (C177A)),"Rate enhancement, Cdk2 N272 (Cdk2(N272C) (C177A))",Rate constant with Cdk2 N272C (Cdk2(N272C) (C177A)),"Rate enhancement, Cdk2 R122C (Cdk2(R122C) (C177A))",Rate constant with Cdk2 R122C (Cdk2(R122C) (C177A)),"Rate enhancement, Cdk2 H71C (Cdk2(H71C) (C177A))","Rate constant with Cdk2[C177A, F80C, K278C] (k(Cdk2_mut)) (Cdk2[C177A, F80C, K278C])","Rate enhancement, Cdk2 F80C (Cdk2(C177A, F80C))","Rate enhancement, Cdk2 S276C (Cdk2(S276C) (C177A))",Rate constant with Cdk2 S276C (Cdk2(S276C) (C177A)),Compound,Rate constant with glutathione (k(GSH)) [2],Rate constant with Glutathione [2],further results
1.495,0.02267,0.05015,3.308,0.05015,0.2569,3.293,12.3,0.1865,1.739,0.02636,0.9697,0.0147,1.964,0.1952,63.59,1.763,0.02673,C=CC(=O)Nc1ccc(-c2ncccn2)cc1 [CA-037],0.01523,0.01516,"Rate constant with Cdk2 H71C (Cdk2(H71C) (C177A)): 0.02977; hit classification against Cdk2(F80C, C177A) (Cdk2(C177A, F80C)): hit ligands; Rate constant with Cdk2 F80C (Cdk2(C177A, F80C)): 0.964; kobs (Cdk2(C177A, F80C); [CA37] 0.02 mM): 0.00007107 min⁻¹; kobs (Cdk2(C177A, F80C); [CA37] 0.05 mM): 0.000271 min⁻¹; kobs (Cdk2(C177A, F80C); [CA37] 0.1 mM): 0.0006704 min⁻¹; kobs (Cdk2(C177A, F80C); [CA37] 0.2 mM): 0.001313 min⁻¹; kobs (Cdk2(C177A, F80C); [CA37] 0.35 mM): 0.002029 min⁻¹; kobs (Cdk2(C177A, F80C); [CA37] 0.5 mM): 0.002372 min⁻¹; kobs (Cdk2(C177A, F80C); [CA37] 1 mM): 0.004177 min⁻¹; kobs (Cdk2(C177A, F80C); [CA37] 2 mM): 0.005626 min⁻¹; Kd (Cdk2(C177A, F80C); [3]): 1.2 mM; k2 (Cdk2(C177A, F80C); [3]): 0.009427 min⁻¹"
0.7715,0.2049,0.743,2.797,0.743,0.5342,2.774,2.615,0.6945,0.715,0.1899,1.407,0.3736,1.102,1.391,0,0.6924,0.1839,C=CC(=O)Nc1sc2c(c1C(=O)NC1CC1)CCC2 [CA-155],0.2678,0.2656,Rate constant with Cdk2 H71C (Cdk2(H71C) (C177A)): 0.2926
0.4684,0.01342,0.01181,0.4122,0.01181,2.854,0.4129,2,0.05729,0.5689,0.0163,0.2711,0.007767,0.9714,0.00414,0.4705,0.7682,0.02201,C=CC(=O)N1CCN(S(C)(=O)=O)CC1c1ccccc1 (centres unmarked) [EL-1160],0.0286,0.02865,"Rate constant with Cdk2 H71C (Cdk2(H71C) (C177A)): 0.02783; Rate constant with Cdk2 F80C (Cdk2(C177A, F80C)): 0.01348"
